Series [1] addresses T1, H^+,K^+ adenosine triphosphatase (Sus scrofa, UniProt P19156).
T1 construct: hog stomach was homogenized and subjected to ultracentrifugation to obtain a microsome fraction; from tissue; host or cells: hog stomach, microsome fraction (discontinuous Ficoll gradient)
Put plainly: H+,K+ adenosine triphosphatase inhibition (proton pump inhibition). It is filed as biochemical, hog. The procedure: Proton pump inhibition was evaluated by the H^+,K^+ adenosine triphosphatase (to be referred to as "H^+,K^+ ATPase" hereinafter)inhibition.
That is, hog stomach was homogenized and subjected to ultracentrifugation to obtain a microsome fraction, and the microsomes were subjected to discontinuous density gradient ultracentrifugation using 0 and 9% Ficoll solutions to obtain a fraction containing H^+,K^+ ATPase. The H^+,K^+ ATPase activity was determined by measuring the released inorganic phosphorus using ATP as the substrate and an inorganic phosphorus measuring reagent PiSET(IATRON) manufactured by IATRON.

The test system of series [2] is gastric acid secretion. In words: Gastric acid secretion inhibition activity (pylorus-ligated, histamine-stimulated rats). As to conditions: Rattus norvegicus; 30 mg/kg oral; pylorus ligated 3 hours later; histamine hydrochloride 30 mg/kg s.c.; total acidity over 3 hours; read-out: Acid secretion inhibition rate (%). It is filed as in vivo, Sprague-Dawley (SD) male rats. The procedure:
(Test Example 2) Gastric acid secretion inhibition activity
Basically according to the method of Satoh et (Journal of Pharmacology and Experimental Therapeutics, vol.248, pp.806-815, 1988), each of the compounds shown in Examples was orally administered at a dose of 30 mg/kg to Sprague-Dawley (SD) male rats which have been subjected to fasting of 24 hours (free drinking).
After 3 hours of the compound administration, the pylorus of each rat was ligated under urethane anesthesia, and 30 mg of histamine hydrochloride per Kg was administered to the rat by subcutaneous injection. After 3 hours of the ligation, the gastric juice was collected to measure its volume and calculate total acidity (mEqH^+ /3 hours) by sodium hydroxide titration. The inhibition rate (%) was calculated by the following formula in which A represents the total gastric juice acidity of control group rat and B represents the total gastric juice acidity of test compound-administered group rat. [formula]

Series [3] has as its system ulcer induced by 0.15N hydrochloric acid and 60% ethanol. In words: Cell protection effect (hydrochloric acid/ethanol-induced ulcer). It is filed as in vivo, Wistar male rats. The following applies: Rattus norvegicus, 1 h; oral, 30 minutes before 0.15N HCl / 60% ethanol 5 ml/kg. The procedure:
(Test Example 5) Cell protection effect
Basically according to the method of Mizui and Doteuchi (Japan. J. Pharmacol., vol.33, pp.939-945, 1983), each of the compounds shown in Examples was orally administered to Wistar male rats which have been subjected to fasting of 24 hours (free drinking). After 30 minutes of the compound administration, a mixture solution of 0.15N hydrochloric acid and 60% ethanol was orally administered at a dose of 5 ml/kg. After 1 hour of standing, the stomach was excised. The length (mm) of each ulcer developed in the stomach was measured under a stereoscopic microscope to calculate the total length of ulcers per animal as an ulcer index. The dose of each test compound required to inhibit 50% of the ulcer index of the control group was calculated (ED50).

A short description of series [4]: Acute toxicity test. The following applies: mouse, in vivo; oral, mice, one week observation. From the text: (Test Example 6) Acute toxicity test
Each of the compounds shown in Examples was orally administered to three ICR male mice per group.

The test system of series [5] is Stress ulcer. Put plainly: Stress ulcer. It is filed as in vivo, Wistar male rats. As to conditions: Rattus norvegicus; oral, 7 hours stress loading in water bath at 23° C.; read-out: Antiulcer activity, Stress ulcer, ED50 value. How it is done: (Test Example 3) Stress ulcer
Basically according to the method of Takagi et al. (Japanese Journal of Pharmacology (to be referred to as "Japan. J. Pharmacol." hereinafter), vol.18, pp.9-18, each of the compounds shown in Examples was orally administered to Wistar male rats which have been subjected to fasting of 24 hours (free drinking). Each rat was transferred into a stress cage 30 minutes thereafter and subjected to stress loading by suspending the cage in a water bath controlled at 23° C. to such a depth that the rat was soaked up to its breast.
After 7 hours of the stress loading, the rat was recovered from the water bath to excise the stomach. The length (mm) of each ulcer developed in the stomach was measured under a stereoscopic microscope, and the total length of ulcers per one animal was used as an ulcer index. The dose of each test compound required to inhibit 50% of the ulcer index of the control group was calculated (ED50). The results are shown in Table 3, together with the results of the following pylorus ligation ulcer test.

The subject of series [6] is Pylorus ligation ulcer. In words: Pylorus ligation ulcer. It is filed as in vivo, Wistar male rats. The following applies: Rattus norvegicus; oral, 14 hours after pylorus ligation; read-out: Antiulcer activity, Pylorus ligation ulcer, ED50 value. The procedure: (Test Example 4) Pylorus ligation ulcer
Basically according to the method of Shay et al. (Gastroenterology, vol.5, pp.43-61, 1945), each of the compounds shown in Examples was orally administered to Wistar male rats which have been subjected to fasting of 48 hours (free drinking). After 30 minutes of the compound administration,the pylorus of each rat was ligated.
After 14 hours of standing, the stomach was excised. The length and width of each ulcer developed in the fore-stomach part were measured under a stereoscopic microscope to calculate the ulcer area (length×width). In accordance with the method of Takagi et al. (Japan. J. Pharmacol., vol.24, pp.357-361, 1974), ulcer index was calculated based on the total ulcer area per animal. The dose of each test compound required to inhibit 50% of the ulcer index of the control group was calculated (ED50).

Where [7] appears, read: H+,K+ ATPase fraction from hog stomach microsomes, ATP substrate, released inorganic phosphorus, read-out: Enzyme inhibition IC50 value (converted).

Where two headings read alike, the source gives them in different places. Where only a bound is given, the exact number is not on record here.

T1 sequence (P19156 2-1034 limits assumed): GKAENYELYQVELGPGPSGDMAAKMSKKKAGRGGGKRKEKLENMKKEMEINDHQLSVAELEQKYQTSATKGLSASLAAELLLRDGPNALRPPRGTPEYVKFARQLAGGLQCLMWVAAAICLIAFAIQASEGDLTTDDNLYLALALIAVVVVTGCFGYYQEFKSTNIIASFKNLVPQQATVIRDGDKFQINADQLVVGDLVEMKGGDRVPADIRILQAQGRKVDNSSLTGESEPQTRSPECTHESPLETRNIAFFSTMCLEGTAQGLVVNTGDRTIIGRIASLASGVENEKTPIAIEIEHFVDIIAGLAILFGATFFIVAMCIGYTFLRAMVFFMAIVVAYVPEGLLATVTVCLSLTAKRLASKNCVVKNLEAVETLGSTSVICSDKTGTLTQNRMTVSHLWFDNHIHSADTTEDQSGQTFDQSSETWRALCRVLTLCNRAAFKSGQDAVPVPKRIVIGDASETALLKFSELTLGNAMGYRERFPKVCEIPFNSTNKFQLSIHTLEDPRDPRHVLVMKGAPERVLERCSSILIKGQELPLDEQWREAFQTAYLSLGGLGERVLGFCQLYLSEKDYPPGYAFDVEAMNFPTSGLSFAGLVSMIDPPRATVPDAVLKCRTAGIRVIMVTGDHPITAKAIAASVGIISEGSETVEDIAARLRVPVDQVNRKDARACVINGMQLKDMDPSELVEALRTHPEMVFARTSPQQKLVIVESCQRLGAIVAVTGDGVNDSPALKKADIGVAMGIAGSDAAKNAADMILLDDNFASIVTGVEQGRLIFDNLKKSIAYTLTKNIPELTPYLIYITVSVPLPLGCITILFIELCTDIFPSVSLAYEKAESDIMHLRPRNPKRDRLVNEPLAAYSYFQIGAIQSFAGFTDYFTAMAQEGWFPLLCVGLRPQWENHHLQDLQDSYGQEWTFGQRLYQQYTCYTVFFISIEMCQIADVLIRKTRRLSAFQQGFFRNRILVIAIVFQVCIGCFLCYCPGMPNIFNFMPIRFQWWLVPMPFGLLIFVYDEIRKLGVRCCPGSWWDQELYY
T1 sequence (P18434 whole entry partner): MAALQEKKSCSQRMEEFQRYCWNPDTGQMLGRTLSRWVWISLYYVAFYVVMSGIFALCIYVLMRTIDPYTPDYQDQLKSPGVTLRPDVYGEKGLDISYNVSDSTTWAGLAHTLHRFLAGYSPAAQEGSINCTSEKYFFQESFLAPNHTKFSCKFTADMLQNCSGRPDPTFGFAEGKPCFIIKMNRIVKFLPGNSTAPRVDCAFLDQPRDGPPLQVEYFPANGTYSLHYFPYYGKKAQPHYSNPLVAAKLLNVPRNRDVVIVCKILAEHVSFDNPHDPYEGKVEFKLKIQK

The IC50 is the concentration that gives 50% inhibition. In general, ED50 refers to the midpoint of the dose-response relation. What is called LD50 is the dose expected to kill half of the subjects tested. Higher therefore signals lower toxicity. Take `COC(C)(C)C#Cc1nc2ccccc2nc1C#CC(C)(C)OC` [Example 114]: the IC50 in series [1] (setting [7]) was 93 µM. Also, in series [2], the inhibition in vivo at 30 mg/kg is 30%. The ED50 in series [3] came to 22 mg/kg. Besides, in series [4], the LD50 at 168 h is more than 1000 mg/kg.

Take `CCC(C#Cc1nc2ccccc2nc1C#CC(CC)OCCOC(C)C)OCCOC(C)C` (stereo not drawn) [Example 119]: the IC50 in series [1] (setting [7]) was 11.1 µM. The compound further displayed an ED50 in series [3] of 22 mg/kg.

For the compound `CCC(C#Cc1nc2ccccc2nc1C#CC(CC)OCCOC)OCCOC` (stereo not drawn) [Example 116], the IC50 in series [1] (setting [7]) is 188 µM. Besides, the inhibition in vivo at 30 mg/kg in series [2] was 32%. Moreover, the figures for the ED50 in series [5] and in series [3] were 39 mg/kg and 2.7 mg/kg, respectively. In series [4], the LD50 at 168 h was more than 1000 mg/kg.

Regarding `CCOCCOC(C#Cc1nc2ccccc2nc1C#CC(CC)OCCOCC)CC` (stereo not drawn) [Example 117], the IC50 in series [1] (setting [7]) was 123 µM. Moreover, the inhibition in vivo at 30 mg/kg in series [2] is 35%. For the same compound, the ED50 in series [5] came to 6.1 mg/kg; in series [6], 28 mg/kg; in series [3], 8 mg/kg. Further, the LD50 at 168 h in series [4] was more than 1000 mg/kg.

Consider `COCCOC(C)(C)C#Cc1nc2ccccc2nc1C#CC(C)(C)OCCOC` [Example 43, 2,3-bis(3-(2-methoxyethoxy)-3-methyl-1-butynyl)quinoxaline], for which it took a dose of 13 mg/kg to reach the 50% effect level in series [3] (ED50). This compound showed an LD50 at 168 h in series [4] of more than 1000 mg/kg.

On to `CCC(C#Cc1nc2ccccc2nc1C#CC(CC)OC)OC` (stereo not drawn) [Example 11, 2,3-bis(3-methoxy-1-pentynyl)quinoxaline], for which the IC50 in series [1] (setting [7]) was 30.4 µM. Also, the inhibition in vivo at 30 mg/kg in series [2] turned out to be 27%. The ED50 in series [6] worked out at 35 mg/kg; in series [3] it was 41 mg/kg. Also, the LD50 at 168 h in series [4] was more than 1000 mg/kg.

On to `CCOCCOC(C)(C)C#Cc1nc2ccccc2nc1C#CC(C)(C)OCCOCC` [Example 44, 2,3-bis(3-(2-ethoxyethoxy)-3-methyl-1-butynyl)quinoxaline], for which the IC50 in series [1] (setting [7]) is 88.9 µM. In addition, the figures for the ED50 in series [5] and in series [3] were 59 mg/kg and 13 mg/kg, respectively. In series [4], the LD50 at 168 h is more than 1000 mg/kg.

Take `CCC(C#Cc1nc2ccc(C=O)cc2nc1C#CC(CC)OCCOC)OCCOC` (stereo not drawn) [Example 138]: the IC50 in series [1] (setting [7]) was 10.7 µM. Besides, the ED50 in series [3] was 9.8 mg/kg.

As for `CCOC(C)C#Cc1nc2ccccc2nc1C#CC(C)OCC` (stereo not drawn) [Example 10, 2,3-bis(3-ethoxy-1-butynyl)quinoxaline], the IC50 in series [1] (setting [7]) is 96.2 µM. For the same compound, the inhibition in vivo at 30 mg/kg in series [2] was determined as 38%. Further, the ED50 in series [5] came out at 15 mg/kg; in series [6], 11 mg/kg; in series [3] it was 1.9 mg/kg.

Consider `COCC#Cc1nc(C#N)c(C#N)nc1C#CCOC` [Example 7, 5,6-bis(3-methoxy-1-propynyl)-2,3-dicyanopyrazine], for which the IC50 in series [1] (setting [7]) was 1.88 µM. For the same compound, the ED50 in series [5] turned out to be 5.6 mg/kg; in series [6], 1.2 mg/kg; in series [3], 1.2 mg/kg. In series [4], this compound registered an LD50 at 168 h of more than 1000 mg/kg.

As for `CCCC#Cc1nc(C#N)c(C#N)nc1C#CCOC` [Example 81], the midpoint of inhibition in series [1], the IC50, lay at 1.51 µM. In addition, the inhibition in vivo at 30 mg/kg in series [2] amounted to 61%. Also, the ED50 in series [5] was 42 mg/kg; in series [6], 5.2 mg/kg. Further, the LD50 at 168 h in series [4] is more than 1000 mg/kg.

Source of the values: patent US5583227A, “Antiulcer compounds having a substituted alkynyl or quinoxaline nucleus and methods of making thereof” (Mochida Pharmaceutical Co. Ltd., priority 1994, dated 1996).
